Patent publication US10611764B2 (Wisconsin Alumni Research Foundation, priority 2017, dated 2020)
Positions count from the first letter of the chain named. Read-outs that look alike come from different tables or passages of the source.

Experiments:
[1] = biological target: T1, mAHR genetic variant A375V (D-allele) (Mus musculus, UniProt P30561, A375V/F348L/M589L/N533S/P471L); assay: Luciferase reporter gene assay, mAHR genetic variant A375V (D-allele); format: cell-based; conditions: compared with B-allele
T1 construct: expressed in transfected cells; host or cells: COS-1
T1 sequence (P30561 10-805 F348L/A375V/P471L/N533S/M589L): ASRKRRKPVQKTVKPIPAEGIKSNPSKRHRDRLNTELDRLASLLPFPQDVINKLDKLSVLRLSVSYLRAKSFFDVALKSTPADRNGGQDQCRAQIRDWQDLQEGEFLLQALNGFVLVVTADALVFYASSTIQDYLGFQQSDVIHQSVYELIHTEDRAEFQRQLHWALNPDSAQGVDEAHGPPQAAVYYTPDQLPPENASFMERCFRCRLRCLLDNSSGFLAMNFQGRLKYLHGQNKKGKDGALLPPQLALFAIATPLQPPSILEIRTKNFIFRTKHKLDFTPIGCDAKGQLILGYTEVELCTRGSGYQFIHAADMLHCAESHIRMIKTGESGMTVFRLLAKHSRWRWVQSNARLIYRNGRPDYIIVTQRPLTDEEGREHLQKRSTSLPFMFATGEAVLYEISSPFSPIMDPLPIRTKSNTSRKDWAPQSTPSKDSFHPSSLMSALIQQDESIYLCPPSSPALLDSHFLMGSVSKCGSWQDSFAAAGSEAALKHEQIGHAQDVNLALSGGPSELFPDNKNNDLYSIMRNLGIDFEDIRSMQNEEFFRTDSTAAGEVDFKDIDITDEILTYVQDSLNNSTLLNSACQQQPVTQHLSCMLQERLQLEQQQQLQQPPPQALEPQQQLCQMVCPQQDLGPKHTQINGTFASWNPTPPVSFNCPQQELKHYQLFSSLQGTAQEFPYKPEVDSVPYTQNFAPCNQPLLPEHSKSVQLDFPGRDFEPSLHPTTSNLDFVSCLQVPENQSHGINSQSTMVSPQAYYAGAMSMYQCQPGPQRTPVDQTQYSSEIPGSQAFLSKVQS
From the text: Physiological relevant ligands of the AHR would be expected to activate polymorphic receptors within species and structurally variant receptors across species. As a model of this idea an important endogenous AHR ligands would be expected to activate AHR genetic variants arising from the murine Ahr B1 and D alleles. These two well-known genetic variants, harbor a key sequence variation at residue 375, with alanine in the B1 allele, and valine in the D allele (A375V). Residue 375 is located near the medial position of the AHR-LBD. […] These observations support the notion that AHR genetic variants might function through these endogenous ligands to control normal physiological functions.

[2] = test system: mutant AHR, F289K, F281K, I373K, and L347R; assay: Luciferase reporter gene assay, mAHR hydrophobic pocket mutants in COS-1 cells; format: cell-based, mouse
[3] = test system: mAHR H285A mutant; assay: Luciferase reporter gene assay, mutant mAHR H285A in COS-1 cells; format: cell-based, mouse; conditions: relative to WT mAHR
[4] = biological target: T2, mouse AHR (mAHR B1-allele) (Mus musculus, UniProt P30561, M589L/N533S/P471L); assay: cell-based; conditions: for biological response, eight-hour versus four-hour induction: 8 h vs 4 h
T2 sequence (P30561 10-805 P471L/N533S/M589L): T1 sequence (P30561 10-805 F348L/A375V/P471L/N533S/M589L) with L339F, V366A
Description: The wild type and mutant mAHR were cloned into the XhoI/SalI cloning sites of pTARGET (Promega, Madison, Wis.) using routine PCR and molecular cloning procedures using the pSport-mAHR plasmid (PL65) as template (Dolwick, Swanson et al. 1993). For recombinant expression of mAHR, COS-1 cells were cultured in 6 cm dishes and transfected with 2 μg of wild-type or mutant mAHR expression vector. Twenty-four hours after transfection, cells were collected, and the whole cell extracts were prepared by celLytic M reagent (Sigma-Aldrich, St Louis, Mo.). 100 μg of whole cell extract was analyzed by western blot using antibodies that specifically recognize the mAHR (bear-2) and β-actin (Sigma).
COS-1 cells were cultured in 96-well plates and transiently transfected with pTarget vector containing the expression cassette of wild-type or mutant mAHR, or empty vector (3 ng), together with pGudLu6.1 DREs-driven luciferase reporter vector (14 ng) (Han, Nagy et al. 2004) and TK-renilla luciferase vector (3 ng) (Invitrogen, Carlsbad Calif.). […] The expressed luciferase activity was measured by ENSPIRE plate reader (Perkin Elmer, USA). Data analysis and simulation of dose response curves were performed using GraphPad Prism 5 (GraphPad software Inc., La Jolla, Calif.). The experiments were performed in triplicate and repeated at least three times. Representative results of one repeat are shown as mean±SEM.

[5] = biological target: T3, mAHR Q377A mutant (Mus musculus, UniProt P30561, Q377A); assay: Luciferase reporter gene assay, mutant mAHR Q377A in COS-1 cells; format: cell-based; conditions: relative to WT mAHR
T3 construct: expressed in transfected cells; host or cells: COS-1
T3 sequence (P30561 10-805 Q377A limits assumed): T1 sequence (P30561 10-805 F348L/A375V/P471L/N533S/M589L) with L339F, V366A, Q368A, L462P, S524N, L580M

[6] = biological target: T4, AHR (Rattus norvegicus, UniProt P41738); conditions: Rannug, Rannug et al. 1987; cited from earlier work
T4 sequence (P41738 10-853): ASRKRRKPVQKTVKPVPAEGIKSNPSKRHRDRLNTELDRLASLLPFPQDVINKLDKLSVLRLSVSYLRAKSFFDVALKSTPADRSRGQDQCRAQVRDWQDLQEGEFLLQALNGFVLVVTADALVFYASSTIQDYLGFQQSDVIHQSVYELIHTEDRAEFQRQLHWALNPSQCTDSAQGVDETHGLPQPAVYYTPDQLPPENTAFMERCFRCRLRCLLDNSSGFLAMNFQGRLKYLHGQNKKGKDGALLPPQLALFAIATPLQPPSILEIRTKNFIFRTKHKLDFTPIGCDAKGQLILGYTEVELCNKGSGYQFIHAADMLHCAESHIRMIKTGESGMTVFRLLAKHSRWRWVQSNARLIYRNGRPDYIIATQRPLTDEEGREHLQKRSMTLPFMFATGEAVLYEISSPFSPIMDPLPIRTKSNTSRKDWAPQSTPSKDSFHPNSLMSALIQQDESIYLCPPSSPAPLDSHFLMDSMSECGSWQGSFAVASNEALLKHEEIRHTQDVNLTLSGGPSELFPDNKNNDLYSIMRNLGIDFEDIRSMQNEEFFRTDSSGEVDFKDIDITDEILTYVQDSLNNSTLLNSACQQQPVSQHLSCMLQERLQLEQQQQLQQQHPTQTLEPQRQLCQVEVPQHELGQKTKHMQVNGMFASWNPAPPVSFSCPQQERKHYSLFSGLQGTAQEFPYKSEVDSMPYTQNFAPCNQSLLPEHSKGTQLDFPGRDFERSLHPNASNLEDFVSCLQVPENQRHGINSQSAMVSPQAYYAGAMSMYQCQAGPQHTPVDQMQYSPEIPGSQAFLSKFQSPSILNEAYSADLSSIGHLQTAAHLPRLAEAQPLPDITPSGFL

[7] = test system: MH1C1 rat hepatoma cells; conditions: MH1C1 rat hepatoma cells exposed for three hours; cited from earlier work
[8] = test system: A375V variant of AHR (D allele); conditions: Chang 1993, Ema 1994, Poland 1994; cited from earlier work

For Nc1ccccc1C(=O)CC(N)C(=O)O (centres unmarked) [kynurenine], the “activation of the A375V D-allele” value [1] was “readily activate”, the “effect of F289K and F281K mutations on responsiveness of AHR” value ([2]; F289K, F281K) was “completely abolished” and the “effect of mutation of other hydrophobic residues to lysine or arginine on activity” value ([2]; I373K, L347R, FIG. 1c) was “completely abolished”. The “effect of H285A mutation on AHR induction activity” value [3] was “completely disrupts”, the “fold increase of activity by incubation or long-term storage” value [4] was 100-1000 fold and the “biological response, eight-hour versus four-hour induction” value ([4]; COS-1 cells) was “higher biological response”. The EC50 ([4]; EC50 of AHR activation, COS-1 cells expressing mAHR, luciferase reporter, 4 hours) was roughly 13000 nM, the “fold increase of AHR induction by incubation” value ([4]; after 18 days at room temperature) was roughly 100 fold and the “fold increase of AHR induction by incubation” value ([4]; after three days at 37° C.) was roughly 100 fold. For the same molecule, the “maximum activity, higher than BaP” value ([4]; relative to BaP, FIG. 2A) was 60%, the “maximum AHR activation, higher than that induced by FICZ” value ([4]; relative to FICZ, FIG. 1A) was roughly 40% and the “effect of Q377A mutation on AHR induction activity” value [5] was “barely affected”.

For 6-formylindolo [3,2-b] carbazole [FICZ], the Kd [6] is listed as 0.07 nM, the “effect of H285A mutation on AHR induction activity” value [3] is listed as “remains partially receptive” and the “biological response, eight-hour versus four-hour induction” value ([4]; COS-1 cells) is listed as “slightly reduced”. For the same molecule, the “activity in the 20-hour induction” value ([4]; COS-1 cells, 20 h vs 8 h and 4 h) was “further reduced”, the EC50 ([4]; read-out: EC50 of AHR activation, COS-1 cells expressing mAHR, luciferase reporter, 4 hours) was 0.036 nM and the EC50 [7] was 0.034 nM.

For c1ccc2c(c1)cc1ccc3cccc4ccc2c1c34 [BaP, benzo[a]pyrene], the “activation of the A375V D-allele” value [1] was “barely stimulate”.

For Nc1ccccc1C(=O)CC(N)C(=O)O (centres unmarked) [kynurenine (3 d, 6 m)], the EC50 [4] was 2.7 nM.

c1ccc2c(c1)NC1=C3C2=NCC[C@H]3c2ccccc2N1 [274 ion fraction] showed an AC50 [4] of roughly 5 nM.

With O=c1cc[nH]c2ccccc12 [4(1H)-Quinolinone (4-HQ), 4(1H)-Quinolinone] the “activity in AHR induction (in words)” value ([4]; known chemical derivatives of kynurenine, FIG. 10b) was “did not show any activity”.

For Clc1cc2c(cc1Cl)Oc1cc(Cl)c(Cl)cc1O2 [TCDD, 2,3,7,8-tetrachlorodibenzo-p-dioxin], the “binding to the A375V variant” value [8] is listed as “weakened binding”.
